{"source": "patent US20260217701A1", "about": "“SELECTIVE BET INHIBITORS AND USES THEREOF” (Tay Therapeutics Limited, priority 2022, published 2026)", "system": "imiquimod-induced psoriasis", "test": "Imiquimod-induced psoriasis model", "assay_type": "in vivo, mice", "design": "Spleen Weight / Spleen Weight Ratio: unit not given here", "settings": "for Mean scores of the presence of erythema on the skin of animals at the area of induction of psoriasis / Mean scores of the presence of induration on the skin of animals at the area of induction of psoriasis / Mean scores of the presence of peeling on the skin of animals at the area of induction of psoriasis: mean ± SEM", "procedure,_shortened": "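Mice given topical imiquimod (5% cream) daily on depilated backs Days 1–14; Compound A in 5% DMSO/40% PEG-400/55% saline from Day 8, clobetasol topical as reference. Daily PASI (erythema, induration, peeling, each 0–4, summed) Days 8–15; spleen weight, open-field behaviour, serum IL-1B, IL-6, IL-17, TNF-α, IL-22, IL-23 at Day 15.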", "key": {"[1]": {"settings": "IMI-psoriasis model, mice, 1 mg/kg, individual animals"}, "[2]": {"settings": "IMI-psoriasis model, mice, 3 mg/kg, individual animals"}, "[3]": {"settings": "IMI-psoriasis model, mice, 10 mg/kg, individual animals"}, "[4]": {"settings": "IMI + 1 mg/kg, D8 (before start of treatment)"}, "[5]": {"settings": "IMI + 3 mg/kg, D8 (before start of treatment)"}}, "note": "Values joined by “and” are separate entries in the source; they are usually repeats but may differ in a detail not shown here. Identical values can stand only once."}
{"smiles": "Cn1cc(-c2ccccc2)c(-c2cn(C)c(=O)c3[nH]c(-c4cnn(C(F)(F)F)c4)cc23)cc1=O", "note": "[Compound A, 6-methyl-4-(1-methyl-2-oxo-5-phenyl-1,2-dihydropyridin-4-yl)-2-(1-(trifluoromethyl)-1H-pyrazol-4-yl)-1,6-dihydro-7H-pyrrolo[2,3-c]pyridin-7-one]", "values": [{"measurement": "Use Enrichment Mean D8-D15", "setting": "IMI-psoriasis model, mean D8-D15, 10 mg/kg, per cage (two animals)", "result": "2.86 and 3.86 and 3.50 and 3.14"}, {"measurement": "Spleen Weight", "setting": "[1]", "result": "219.42 and 202.00 and 212.50 and 233.20 and 220.14 and 227.26 and 202.76 and 213.15"}, {"measurement": "Spleen Weight Ratio", "setting": "[1]", "result": "1394.03 and 1137.39 and 1273.22 and 1367.74 and 1289.63 and 1310.61 and 1176.78 and 1298.90"}, {"measurement": "Spleen Weight", "setting": "[2]", "result": "199.90 and 205.09 and 178.46 and 185.94 and 214.46 and 180.80 and 187.63 and 151.76"}, {"measurement": "Spleen Weight Ratio", "setting": "[2]", "result": "1084.06 and 1245.23 and 967.79 and 1175.35 and 1265.25 and 1069.19 and 1163.24 and 921.43"}, {"measurement": "Spleen Weight", "setting": "[3]", "result": "156.01 and 178.03 and 139.03 and 157.80 and 191.54 and 195.58 and 151.42 and 172.86"}, {"measurement": "Spleen Weight Ratio", "setting": "[3]", "result": "939.82 and 1083.57 and 757.66 and 813.82 and 1075.46 and 1071.08 and 902.92 and 1083.08"}, {"measurement": "cytokine levels (IL-17, IL-22, IL-1β, IL-6, TNF-α, IL-23) relative to vehicle", "setting": "all tested doses", "result": "marked reduction of all cytokines assayed"}, {"measurement": "Spleen Weight Ratio", "setting": "day 15, 1, 3, 10 mg/kg", "result": "dose-dependent decrease"}, {"measurement": "Mean scores of the presence of erythema on the skin of animals at the area of induction of psoriasis", "setting": "[4]", "result": "2.0 ± 0.0"}, {"measurement": "Mean scores of the presence of induration on the skin of animals at the area of induction of psoriasis", "setting": "[4]", "result": "2.6 ± 0.2"}, {"measurement": "Mean scores of the presence of peeling on the skin of animals at the area of induction of psoriasis", "setting": "[4]", "result": "2.6 ± 0.2"}, {"measurement": "Mean scores of the presence of erythema on the skin of animals at the area of induction of psoriasis", "setting": "IMI + 1 mg/kg, D9", "result": "2.0 ± 0.3"}, {"measurement": "Mean scores of the presence of induration on the skin of animals at the area of induction of psoriasis", "setting": "IMI + 1 mg/kg, D9", "result": "2.4 ± 0.2"}, {"measurement": "Mean scores of the presence of peeling on the skin of animals at the area of induction of psoriasis", "setting": "IMI + 1 mg/kg, D9", "result": "2.6 ± 0.2"}, {"measurement": "Mean scores of the presence of erythema on the skin of animals at the area of induction of psoriasis", "setting": "IMI + 1 mg/kg, D10", "result": "1.75 ± 0.2"}, {"measurement": "Mean scores of the presence of induration on the skin of animals at the area of induction of psoriasis", "setting": "IMI + 1 mg/kg, D10", "result": "2.1 ± 0.2"}, {"measurement": "Mean scores of the presence of peeling on the skin of animals at the area of induction of psoriasis", "setting": "IMI + 1 mg/kg, D10", "result": "2.1 ± 0.1"}, {"measurement": "Mean scores of the presence of erythema on the skin of animals at the area of induction of psoriasis", "setting": "IMI + 1 mg/kg, D11", "result": "1.9 ± 0.1"}, {"measurement": "Mean scores of the presence of induration on the skin of animals at the area of induction of psoriasis", "setting": "IMI + 1 mg/kg, D11", "result": "2.0 ± 0.3"}, {"measurement": "Mean scores of the presence of peeling on the skin of animals at the area of induction of psoriasis", "setting": "IMI + 1 mg/kg, D11", "result": "1.9 ± 0.2"}, {"measurement": "Mean scores of the presence of erythema on the skin of animals at the area of induction of psoriasis", "setting": "IMI + 1 mg/kg, D12", "result": "1.5 ± 0.2"}, {"measurement": "Mean scores of the presence of induration on the skin of animals at the area of induction of psoriasis", "setting": "IMI + 1 mg/kg, D12", "result": "1.6 ± 0.2"}, {"measurement": "Mean scores of the presence of peeling on the skin of animals at the area of induction of psoriasis", "setting": "IMI + 1 mg/kg, D12", "result": "1.3 ± 0.2"}, {"measurement": "Mean scores of the presence of erythema on the skin of animals at the area of induction of psoriasis", "setting": "IMI + 1 mg/kg, D13", "result": "0.5 ± 0.2"}, {"measurement": "Mean scores of the presence of induration on the skin of animals at the area of induction of psoriasis", "setting": "IMI + 1 mg/kg, D13", "result": "1.5 ± 0.2"}, {"measurement": "Mean scores of the presence of peeling on the skin of animals at the area of induction of psoriasis", "setting": "IMI + 1 mg/kg, D13", "result": "1.1 ± 0.1"}, {"measurement": "Mean scores of the presence of erythema on the skin of animals at the area of induction of psoriasis", "setting": "IMI + 1 mg/kg, D14", "result": "0.3 ± 0.2"}, {"measurement": "Mean scores of the presence of induration on the skin of animals at the area of induction of psoriasis", "setting": "IMI + 1 mg/kg, D14", "result": "0.9 ± 0.2"}, {"measurement": "Mean scores of the presence of peeling on the skin of animals at the area of induction of psoriasis", "setting": "IMI + 1 mg/kg, D14", "result": "1.0 ± 0.0"}, {"measurement": "Mean scores of the presence of erythema on the skin of animals at the area of induction of psoriasis", "setting": "IMI + 1 mg/kg, D15", "result": "0.0 ± 0.0"}, {"measurement": "Mean scores of the presence of induration on the skin of animals at the area of induction of psoriasis", "setting": "IMI + 1 mg/kg, D15", "result": "0.5 ± 0.2"}, {"measurement": "Mean scores of the presence of peeling on the skin of animals at the area of induction of psoriasis", "setting": "IMI + 1 mg/kg, D15", "result": "0.7 ± 0.2"}, {"measurement": "Mean scores of the presence of erythema on the skin of animals at the area of induction of psoriasis", "setting": "[5]", "result": "1.9 ± 0.1"}, {"measurement": "Mean scores of the presence of induration on the skin of animals at the area of induction of psoriasis", "setting": "[5]", "result": "2.5 ± 0.2"}, {"measurement": "Mean scores of the presence of peeling on the skin of animals at the area of induction of psoriasis", "setting": "[5]", "result": "2.3 ± 0.2"}, {"measurement": "Mean scores of the presence of erythema on the skin of animals at the area of induction of psoriasis", "setting": "IMI + 3 mg/kg, D9", "result": "1.6 ± 0.2"}, {"measurement": "Mean scores of the presence of induration on the skin of animals at the area of induction of psoriasis", "setting": "IMI + 3 mg/kg, D9", "result": "2.6 ± 0.2"}, {"measurement": "Mean scores of the presence of peeling on the skin of animals at the area of induction of psoriasis", "setting": "IMI + 3 mg/kg, D9", "result": "2.5 ± 0.2"}, {"measurement": "Mean scores of the presence of erythema on the skin of animals at the area of induction of psoriasis", "setting": "IMI + 3 mg/kg, D10", "result": "1.4 ± 0.2"}, {"measurement": "Mean scores of the presence of induration on the skin of animals at the area of induction of psoriasis", "setting": "IMI + 3 mg/kg, D10", "result": "2.1 ± 0.1"}, {"measurement": "Mean scores of the presence of peeling on the skin of animals at the area of induction of psoriasis", "setting": "IMI + 3 mg/kg, D10", "result": "2.0 ± 0.2"}, {"measurement": "Mean scores of the presence of erythema on the skin of animals at the area of induction of psoriasis", "setting": "IMI + 3 mg/kg, D11", "result": "1.0 ± 0.0"}, {"measurement": "Mean scores of the presence of induration on the skin of animals at the area of induction of psoriasis", "setting": "IMI + 3 mg/kg, D11", "result": "1.4 ± 0.2"}, {"measurement": "Mean scores of the presence of peeling on the skin of animals at the area of induction of psoriasis", "setting": "IMI + 3 mg/kg, D11", "result": "1.6 ± 0.2"}, {"measurement": "Mean scores of the presence of erythema on the skin of animals at the area of induction of psoriasis", "setting": "IMI + 3 mg/kg, D12", "result": "0.8 ± 0.2"}, {"measurement": "Mean scores of the presence of induration on the skin of animals at the area of induction of psoriasis", "setting": "IMI + 3 mg/kg, D12", "result": "1.4 ± 0.2"}, {"measurement": "Mean scores of the presence of peeling on the skin of animals at the area of induction of psoriasis", "setting": "IMI + 3 mg/kg, D12", "result": "1.4 ± 0.2"}, {"measurement": "Mean scores of the presence of erythema on the skin of animals at the area of induction of psoriasis", "setting": "IMI + 3 mg/kg, D13", "result": "0.3 ± 0.2"}, {"measurement": "Mean scores of the presence of induration on the skin of animals at the area of induction of psoriasis", "setting": "IMI + 3 mg/kg, D13", "result": "0.6 ± 0.2"}, {"measurement": "Mean scores of the presence of peeling on the skin of animals at the area of induction of psoriasis", "setting": "IMI + 3 mg/kg, D13", "result": "0.9 ± 0.1"}, {"measurement": "Mean scores of the presence of erythema on the skin of animals at the area of induction of psoriasis", "setting": "IMI + 3 mg/kg, D14", "result": "0.3 ± 0.2"}, {"measurement": "Mean scores of the presence of induration on the skin of animals at the area of induction of psoriasis", "setting": "IMI + 3 mg/kg, D14", "result": "0.3 ± 0.2"}, {"measurement": "Mean scores of the presence of peeling on the skin of animals at the area of induction of psoriasis", "setting": "IMI + 3 mg/kg, D14", "result": "0.3 ± 0.2"}]}
